In assay [1] the target is T1, Serine/threonine-protein kinase TAO1 (Homo sapiens, UniProt Q7L7X3).
T1 sequence (Q7L7X3 whole entry): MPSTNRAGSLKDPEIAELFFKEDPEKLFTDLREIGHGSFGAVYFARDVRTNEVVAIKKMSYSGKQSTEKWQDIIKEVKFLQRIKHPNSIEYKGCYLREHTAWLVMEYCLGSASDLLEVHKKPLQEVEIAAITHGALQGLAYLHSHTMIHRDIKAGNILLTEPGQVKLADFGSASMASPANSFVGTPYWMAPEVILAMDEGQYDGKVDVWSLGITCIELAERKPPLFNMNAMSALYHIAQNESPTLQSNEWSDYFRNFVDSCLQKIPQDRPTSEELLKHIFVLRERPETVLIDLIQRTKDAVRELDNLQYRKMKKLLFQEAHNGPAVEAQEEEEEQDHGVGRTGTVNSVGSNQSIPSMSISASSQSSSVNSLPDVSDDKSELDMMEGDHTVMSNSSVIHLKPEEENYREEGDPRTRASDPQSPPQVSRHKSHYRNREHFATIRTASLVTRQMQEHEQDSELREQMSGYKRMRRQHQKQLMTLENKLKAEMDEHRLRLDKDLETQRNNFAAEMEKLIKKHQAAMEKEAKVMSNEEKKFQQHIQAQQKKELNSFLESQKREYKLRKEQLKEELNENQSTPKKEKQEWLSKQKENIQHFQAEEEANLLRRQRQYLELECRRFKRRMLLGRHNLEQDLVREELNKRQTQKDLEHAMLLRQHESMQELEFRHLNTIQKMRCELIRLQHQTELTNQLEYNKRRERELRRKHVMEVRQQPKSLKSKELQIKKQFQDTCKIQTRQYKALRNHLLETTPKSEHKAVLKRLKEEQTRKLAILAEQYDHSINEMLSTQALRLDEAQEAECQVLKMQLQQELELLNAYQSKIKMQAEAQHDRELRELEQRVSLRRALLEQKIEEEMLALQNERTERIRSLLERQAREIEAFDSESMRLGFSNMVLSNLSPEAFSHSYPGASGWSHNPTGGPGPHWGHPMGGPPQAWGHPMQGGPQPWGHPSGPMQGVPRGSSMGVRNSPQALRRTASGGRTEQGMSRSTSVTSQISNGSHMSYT
The experiment in a line: Inhibition recombinant human TAOK1 (1 to 356 residues) after 5 mins in presence of [33P] ATP by Topcount method.

Assay [2] concerns the target Homeodomain-interacting protein kinase 2 (Homo sapiens, UniProt Q9H2X6). In words: Inhibition recombinant human HIPK2 (165 to 564 residues) after 5 mins in presence of [33P] ATP by Topcount method.
Assay [3] addresses T2, Pirin (Homo sapiens, UniProt O00625).
T2 sequence (O00625 whole entry): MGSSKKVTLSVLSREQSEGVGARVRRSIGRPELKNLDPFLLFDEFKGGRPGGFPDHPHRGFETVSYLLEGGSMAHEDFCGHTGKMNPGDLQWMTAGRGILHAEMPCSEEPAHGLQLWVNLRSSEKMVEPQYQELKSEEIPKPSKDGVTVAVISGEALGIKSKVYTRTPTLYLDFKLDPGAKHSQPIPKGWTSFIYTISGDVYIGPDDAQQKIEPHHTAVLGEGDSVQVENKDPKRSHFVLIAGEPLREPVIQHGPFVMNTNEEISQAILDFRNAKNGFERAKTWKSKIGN
In words: Displacement of 6-amino-9-(2-((4-((2-((6-((5-(2,3-dihydrobenzo[b][1,4]dioxine-6-carboxamido)-2-methylphenyl)carbamoyl)quinolin-2-yl)oxy)ethyl)amino)-4-oxobutyl)(methyl)carbamoyl)phenyl)-3-imino-3H-xanthene-4,5-disulfonic acid from pirin (unknown origin) by fluorescence polarization assay. Background: Polarisation of emitted light reports the rotation of a fluorescent probe.

In assay [4] the target is Serine/threonine-protein kinase B-raf (Homo sapiens, UniProt P15056). In words: Inhibition of recombinant human full length GST-tagged BRAF expressed in baculovirus expression system.
For assay [5], the target named is Serine/threonine-protein kinase B-raf (Homo sapiens, UniProt P15056, V600E). In words: Inhibition of recombinant human GST-tagged BRAF V600E mutant expressed in baculovirus expression system.

Among the data in ChEMBL document CHEMBL4325925, “Privileged Structures and Polypharmacology within and between Protein Families” (ACS Med Chem Lett, 2018) are IC50 values, retold here.

The structures appear in SMILES notation.

Sequence of Serine/threonine-protein kinase B-raf (Homo sapiens, UniProt P15056) (P15056 whole entry): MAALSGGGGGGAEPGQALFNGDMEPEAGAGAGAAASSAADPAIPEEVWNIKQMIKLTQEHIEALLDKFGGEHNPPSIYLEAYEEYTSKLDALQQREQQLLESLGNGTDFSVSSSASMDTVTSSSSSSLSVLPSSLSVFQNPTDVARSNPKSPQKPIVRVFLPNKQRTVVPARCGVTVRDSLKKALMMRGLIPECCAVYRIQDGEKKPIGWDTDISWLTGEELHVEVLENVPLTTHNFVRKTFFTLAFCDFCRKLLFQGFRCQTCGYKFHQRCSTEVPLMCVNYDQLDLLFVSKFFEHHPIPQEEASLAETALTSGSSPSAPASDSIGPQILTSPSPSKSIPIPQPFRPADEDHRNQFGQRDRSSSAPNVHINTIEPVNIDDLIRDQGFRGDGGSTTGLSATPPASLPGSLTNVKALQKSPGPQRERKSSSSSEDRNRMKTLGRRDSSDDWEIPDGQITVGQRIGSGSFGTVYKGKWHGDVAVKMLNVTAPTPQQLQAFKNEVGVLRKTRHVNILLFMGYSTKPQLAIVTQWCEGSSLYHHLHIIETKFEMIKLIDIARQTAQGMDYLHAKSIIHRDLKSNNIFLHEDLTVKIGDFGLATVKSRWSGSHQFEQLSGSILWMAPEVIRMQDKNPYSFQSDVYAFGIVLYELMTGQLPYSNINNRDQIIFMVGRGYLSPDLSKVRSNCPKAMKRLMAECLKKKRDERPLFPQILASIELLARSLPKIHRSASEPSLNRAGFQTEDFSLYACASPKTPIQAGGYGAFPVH
Sequence of Serine/threonine-protein kinase B-raf (Homo sapiens, UniProt P15056, V600E) (P15056 2-766 V600E limits assumed): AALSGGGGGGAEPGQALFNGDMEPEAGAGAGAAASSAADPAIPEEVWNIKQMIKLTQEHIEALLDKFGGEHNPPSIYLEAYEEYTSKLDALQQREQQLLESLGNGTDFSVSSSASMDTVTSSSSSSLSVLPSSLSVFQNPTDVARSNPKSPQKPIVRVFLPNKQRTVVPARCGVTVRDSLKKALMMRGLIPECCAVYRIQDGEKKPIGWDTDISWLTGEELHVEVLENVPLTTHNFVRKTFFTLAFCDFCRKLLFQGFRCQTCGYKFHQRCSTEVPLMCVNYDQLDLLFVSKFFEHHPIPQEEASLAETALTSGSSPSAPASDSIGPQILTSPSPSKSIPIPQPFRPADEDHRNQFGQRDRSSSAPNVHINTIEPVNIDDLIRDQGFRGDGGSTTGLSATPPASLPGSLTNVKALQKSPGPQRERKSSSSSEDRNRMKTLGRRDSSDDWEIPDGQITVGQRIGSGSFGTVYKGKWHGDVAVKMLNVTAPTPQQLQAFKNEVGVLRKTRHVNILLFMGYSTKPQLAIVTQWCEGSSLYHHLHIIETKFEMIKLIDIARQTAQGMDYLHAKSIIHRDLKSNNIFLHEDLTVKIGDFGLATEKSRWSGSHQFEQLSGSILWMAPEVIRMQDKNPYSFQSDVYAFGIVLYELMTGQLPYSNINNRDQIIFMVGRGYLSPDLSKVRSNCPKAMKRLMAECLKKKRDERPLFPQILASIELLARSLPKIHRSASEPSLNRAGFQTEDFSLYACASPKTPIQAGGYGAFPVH
Sequence of Homeodomain-interacting protein kinase 2 (Q9H2X6 whole entry, the tested form may be a part): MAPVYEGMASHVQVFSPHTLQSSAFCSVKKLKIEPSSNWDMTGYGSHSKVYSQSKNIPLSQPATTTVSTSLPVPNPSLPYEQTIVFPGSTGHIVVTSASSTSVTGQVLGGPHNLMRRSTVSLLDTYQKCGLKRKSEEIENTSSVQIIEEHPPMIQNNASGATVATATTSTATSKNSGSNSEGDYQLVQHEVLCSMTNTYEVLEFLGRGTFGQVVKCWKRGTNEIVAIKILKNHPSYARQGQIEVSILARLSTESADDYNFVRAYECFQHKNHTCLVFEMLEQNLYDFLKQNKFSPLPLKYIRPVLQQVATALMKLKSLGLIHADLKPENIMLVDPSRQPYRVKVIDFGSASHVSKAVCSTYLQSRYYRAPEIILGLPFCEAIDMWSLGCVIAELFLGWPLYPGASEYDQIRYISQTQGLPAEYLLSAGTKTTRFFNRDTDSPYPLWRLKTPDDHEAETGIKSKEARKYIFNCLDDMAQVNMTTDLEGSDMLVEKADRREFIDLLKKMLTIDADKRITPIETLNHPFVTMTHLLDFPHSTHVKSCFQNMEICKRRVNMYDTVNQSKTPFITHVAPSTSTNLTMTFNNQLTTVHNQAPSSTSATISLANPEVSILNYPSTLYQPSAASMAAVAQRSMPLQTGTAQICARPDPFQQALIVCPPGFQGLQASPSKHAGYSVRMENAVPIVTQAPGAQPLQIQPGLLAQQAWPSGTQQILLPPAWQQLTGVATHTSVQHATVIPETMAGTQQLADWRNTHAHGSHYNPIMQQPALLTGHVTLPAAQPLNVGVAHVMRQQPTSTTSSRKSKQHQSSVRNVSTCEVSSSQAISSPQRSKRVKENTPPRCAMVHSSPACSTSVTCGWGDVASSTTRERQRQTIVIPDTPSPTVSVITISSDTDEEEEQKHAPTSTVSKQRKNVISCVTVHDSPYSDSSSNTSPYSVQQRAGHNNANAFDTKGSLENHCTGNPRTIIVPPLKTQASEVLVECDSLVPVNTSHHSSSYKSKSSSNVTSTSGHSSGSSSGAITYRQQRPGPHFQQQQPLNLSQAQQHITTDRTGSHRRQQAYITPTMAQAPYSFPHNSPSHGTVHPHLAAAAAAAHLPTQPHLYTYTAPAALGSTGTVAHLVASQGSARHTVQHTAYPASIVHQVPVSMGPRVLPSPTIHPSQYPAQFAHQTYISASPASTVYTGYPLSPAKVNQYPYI

Turning to `c1cnc2ncn(-c3cc(Nc4ccc(OCCN5CCCCC5)cn4)ncn3)c2c1`, the IC50 (as a rule, the midpoint of a concentration-inhibition curve) amounted to 490 nM in assay [1] and 30 nM in assay [2]. Turning to `CC(C)(C)N1CCN(Cc2ccc3cc(C(=O)Nc4cc(NC(=O)c5ccc6c(c5)OCCO6)ccc4Cl)ccc3n2)CC1`, the IC50 in assay [3] is 33 nM; in assay [4], over 10000 nM. On to `Cn1c(Nc2ccc(C(F)(F)F)cc2)nc2cc(Oc3ccnc(-c4ncc(C(F)(F)F)[nH]4)c3)ccc21` [RAF-265], for which, in assay [3], the IC50 is over 10000 nM. `OCCn1cc(-c2ccc3c(c2)CC/C3=N\O)c(-c2ccncc2)n1`: the half-inhibitory concentration (IC50) in assay [3] is over 10000 nM.

`CC(C)(C)c1nc(-c2cccc(NS(=O)(=O)c3c(F)cccc3F)c2F)c(-c2ccnc(N)n2)s1` [DABRAFENIB] returned an IC50 in assay [3] of over 10000 nM.

Consider `N#Cc1c(Oc2ccc(F)c(NC(=O)Cc3cccc(C(F)(F)F)c3)c2)ccc2nc(NC(=O)C3CC3)sc12`, for which the IC50 was over 10000 nM in assay [3], 8 nM in assay [4] and 2 nM in assay [5]. In assay [3], `Cc1ccc(NC(=O)c2cccc(C(C)(C)C#N)c2)cc1Nc1ccc2ncn(C)c(=O)c2c1` returned a concentration for half-maximal inhibition (IC50) of over 10000 nM.

In assay [3], `CCCS(=O)(=O)Nc1ccc(F)c(C(=O)c2c[nH]c3ncc(Cl)cc23)c1F` [PLX-4720] registered an IC50 of 670 nM.
